Consider one molecule from patent publication US20170209427A1, “USE OF LAQUINIMOD TO DELAY HUNTINGTON'S DISEASE PROGRESSION” (Teva Pharmaceutical Industries, Ltd., priority 2013, published 2017).

A value given as a limit tells only on which side of the number the result lay.

One data set is described as follows: clinical. Also noted: species or system humans. To be noted: human, in vivo.
Another data set concerns patients with HD. Kind of data set: Phase II randomized, double-blind, placebo-controlled clinical trial of laquinimod in Huntington's disease. It counts as in vivo, human. On the procedure:
A phase II, multi-centered, multinational, randomized, parallel-group, double-blinded, placebo-controlled study is conducted to evaluate the safety and efficacy of laquinimod (0.5, 1.0 and 1.5 mg/day) versus placebo in patients with HD.
This study includes 4 treatment arms, with approximately 100 patients per treatment arm and approximately 400 patients in total. The study is conducted in approximately 30 centers in Canada, USA and Europe.
The study population is comprised of patients with adult onset HD, with a cytosine-adenosine-guanine (CAG) repeat length between 40 and 49, inclusive. The basic eligibility criteria selects a population with symptoms of HD, as assessed by a Unified HD Rating Scale—Total Motor Score (UHDRS-TMS)>5, but with a largely retained functional capacity, as assessed with a Unified HD Rating Scale—Total Functional Capacity (UHDRS-TFC) score≧8.
The dose levels of laquinimod are 0.5 mg/day, 1.0 mg/day and 1.5 mg/day. Every patient takes 3 capsules once daily at the same time of the day for the whole study period.
The Laqunimod Treatment Arms are as follows: • 1.5 mg LAQ/day: patients randomized to laquinimod 1.5 mg qd (i.e., once daily) treatment arm receive 3 capsules of 0.5 mg laquinimod daily. • 1.0 mg LAQ/day: patients randomized to laquinimod 1.0 mg qd treatment arm receive 2 capsules of 0.5 mg laquinimod and 1 capsule of matching placebo daily. • 0.5 mg LAQ/day: patients randomized to laquinimod 0.5 mg qd treatment arm receive 1 capsule of 0.5 mg laquinimod and 2 capsules of matching placebo daily.
The 0.5 mg laquinimod capsules were prepared using 0.534 mg of laquinimod sodium per capsule (which is equivalent to 0.5 mg of laquinimod acid). The capsules were prepared using a blend proportional to the 0.6 mg capsules described in PCT International Application No. PCT/US2007/013721 (WO 2007/146248). The capsules were prepared according to the method described in PCT international Application No. PCT/US2007/013721 (WO 2007/146248), which is hereby incorporated by reference into this application.
This is a multinational, multicenter, randomized, double-blind, parallel-group, placebo-controlled study to evaluate the safety and clinical effect of daily oral administration of laquinimod (0.5 mg, 1.0 mg, or 1.5 mg) in patients with HD.
Patients are treated with laquinimod for 12 months, and safety and efficacy are assessed after 1, 3, 6, 9 and 12 months of treatment. Eligible subjects are randomized in a 1:1:1:1 ratio into one of the following treatment arms: • 1. Laquinimod capsule 0.5 mg (Total of 0.5 mg) • 2. Laquinimod capsules 0.5 mg×2 (Total of 1.0 mg) • 3. Laquinimod capsules 0.5 mg×3 (Total of 1.5 mg) • 4. Matching placebo
The following assessments are performed at the specified time points: • 1. Eligibility criteria is reviewed and confirmed at screening and baseline. • 2. Vital signs are measured at each study visit. • 3. A physical examination is performed at each study visit. • 4. The following safety clinical laboratory tests are performed: • a) Complete blood count (CBC) with differential at each study visit. • b) Serum chemistry (including electrolytes, liver enzymes, urea, creatinine, glucose, total protein, albumin, direct and total bilirubin, Creatinephosphokinase (CPK), serum conventional C-reactive protein (CRP), fibrinogen and pancreatic amylase)—at all scheduled visits. […]

Data set [1] deals with patients with relapsing remitting MS. As to conditions: after 1 year of treatment; cited from earlier work.
The next data set has as its target T1, CYP3A4 (Homo sapiens, UniProt P08684).
T1 construct: from tissue; host or cells: human liver (in vivo)
Put plainly: Metabolism of laquinimod in the liver. The class given is in vivo. To be noted: humans.

[2] abbreviates: 0.5, 1.0 and 1.5 mg/day oral vs Placebo Arm, 12 months.

T1 sequence (P08684 whole entry): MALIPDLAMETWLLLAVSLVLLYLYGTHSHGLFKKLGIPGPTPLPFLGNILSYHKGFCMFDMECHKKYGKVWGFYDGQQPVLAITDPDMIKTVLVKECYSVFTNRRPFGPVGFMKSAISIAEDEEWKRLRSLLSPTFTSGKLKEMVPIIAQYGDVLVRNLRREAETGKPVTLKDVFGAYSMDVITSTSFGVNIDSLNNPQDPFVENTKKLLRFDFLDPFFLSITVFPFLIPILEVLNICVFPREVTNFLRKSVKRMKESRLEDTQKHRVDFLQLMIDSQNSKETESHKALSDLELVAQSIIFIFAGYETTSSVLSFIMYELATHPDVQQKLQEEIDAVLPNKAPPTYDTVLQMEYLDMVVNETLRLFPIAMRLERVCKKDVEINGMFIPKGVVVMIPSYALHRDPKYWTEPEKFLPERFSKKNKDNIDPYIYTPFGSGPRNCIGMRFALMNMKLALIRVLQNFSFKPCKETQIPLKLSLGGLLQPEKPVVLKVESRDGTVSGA

Turning to `CCN(C(=O)c1c(O)c2c(Cl)cccc2n(C)c1=O)c1ccccc1` [laquinimod], in “clinical”, the Vd is about 10 L, the fraction unbound was under 0.02 and the half-life is about 80 h. In “clinical” (po), this molecule showed a bioavailability of about 90% and an oral clearance of about 0.09 L/h. In addition, in the data set with patients with HD (setting [2]), the “Progression (rate of change) of CIBIC-Plus global score” value was “slower”, the “Progression (rate of change) of HADS” value is reported as “slower”, the “Progression (rate of change) of PBA (short)” value is given as “slower” and the “Progression (rate of change) of Physical Performance Test (PPT) score” value is “slower”. In the data set on patients with HD (setting [2]), the “Progression (rate of change) of Q-motor assessments score” value was “slower”, the “Progression (rate of change) of UHDRS-FA score” value is given as “slower”, the “Progression (rate of change) of UHDRS-TMS” value is “slower” and the “Progression (rate of change) of cognitive assessment battery (CAB)” value is reported as “slower”. Besides, in the data set with patients with HD (setting [2]), the “Progression (rate of change) of deterioration of functional capacity, UHDRS-TFC score” value is “slower”; the “Progression (rate of change) of work productivity and quality of life (HD-QoL)” value is reported as “slower”. Besides, the “Progression (rate of change) of brain atrophy (whole brain, caudate, white matter, ventricular volume)” value with patients with HD (0.5, 1.0 and 1.5 mg/day oral vs Placebo Arm, MRI, 12 months) is on record as “slower”. The “treatment of symptomatic early HD patients” value in the data set on patients with HD (0.5, 1.0 and 1.5 mg/day oral, UHDRS-TMS >5 and/or UHDRS-TFC ≧8 at baseline) is “effective”. Moreover, the “effect on brain atrophy and disability progression” value in data set [1] was “benefit”. In addition, the “metabolism by CYP3A4 in the liver” value on CYP3A4 is listed as “extensively metabolized”.
